Kd data for 14 molecules are collected here from ChEMBL document CHEMBL2331173, “Water-mediated interactions influence the binding of thapsigargin to sarco/endoplasmic reticulum calcium adenosinetriphosphatase” (J Med Chem, 2013).

In the assay the target is Sarcoplasmic/endoplasmic reticulum calcium ATPase 1 (Oryctolagus cuniculus, UniProt P04191). The experiment in a line: Binding affinity to SERCA1a in sarcoplasmic reticulum vesicles of rabbit skeletal muscle after 2.5 to 6 mins by spectrophotometric analysis. Also noted: species or system Muscle tissue.
Sarcoplasmic/endoplasmic reticulum calcium ATPase 1, sequence (P04191 whole entry): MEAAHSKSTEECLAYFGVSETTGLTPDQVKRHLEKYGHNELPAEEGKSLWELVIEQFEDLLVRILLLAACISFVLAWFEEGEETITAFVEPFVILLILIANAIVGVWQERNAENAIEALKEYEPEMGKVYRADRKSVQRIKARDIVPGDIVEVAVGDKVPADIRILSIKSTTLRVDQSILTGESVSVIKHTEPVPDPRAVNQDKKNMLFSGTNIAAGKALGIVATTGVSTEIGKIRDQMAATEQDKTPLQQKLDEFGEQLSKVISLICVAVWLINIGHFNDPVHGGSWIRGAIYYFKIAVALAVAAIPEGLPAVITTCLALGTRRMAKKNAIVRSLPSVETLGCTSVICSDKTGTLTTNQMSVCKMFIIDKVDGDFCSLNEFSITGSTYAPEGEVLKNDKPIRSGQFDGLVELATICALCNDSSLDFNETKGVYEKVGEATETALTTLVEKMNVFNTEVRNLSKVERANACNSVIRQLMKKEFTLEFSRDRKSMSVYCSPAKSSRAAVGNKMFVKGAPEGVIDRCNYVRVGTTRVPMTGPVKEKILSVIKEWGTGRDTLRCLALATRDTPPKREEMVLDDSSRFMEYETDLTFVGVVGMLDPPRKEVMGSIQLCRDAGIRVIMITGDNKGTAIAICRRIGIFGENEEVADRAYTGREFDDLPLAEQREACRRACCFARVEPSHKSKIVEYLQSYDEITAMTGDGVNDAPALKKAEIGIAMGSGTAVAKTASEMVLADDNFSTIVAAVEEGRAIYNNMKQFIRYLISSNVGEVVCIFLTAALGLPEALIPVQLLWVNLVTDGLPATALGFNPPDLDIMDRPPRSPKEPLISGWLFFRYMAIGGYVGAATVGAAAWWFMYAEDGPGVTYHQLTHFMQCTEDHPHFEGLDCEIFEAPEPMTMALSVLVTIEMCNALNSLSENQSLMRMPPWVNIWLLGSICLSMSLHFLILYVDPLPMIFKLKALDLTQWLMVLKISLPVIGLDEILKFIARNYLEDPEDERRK
The term Kd denotes a measure of binding affinity in units of concentration. For `C/C=C(/C)C(=O)O[C@H]1C(C)=C2[C@H]([C@@H]1OC(=O)CCCCCCC)[C@@](C)(OC(=O)CCCCCCC)C[C@H](OC(=O)CCC)[C@@]1(O)[C@H]2OC(=O)[C@@]1(C)O`, the dissociation constant Kd came out at 2.5 nM.

In the case of `C/C=C(/C)C(=O)O[C@H]1C(C)=C2[C@H]([C@@H]1OC(=O)c1ccccc1)[C@@](C)(OC(C)=O)C[C@H](OC(=O)CCC)[C@@]1(O)[C@H]2OC(=O)[C@@]1(C)O`, the Kd worked out at 1.5 nM.

As to `C/C=C(/C)C(=O)O[C@H]1C(C)=C2[C@H]([C@@H]1OC(=O)CCCCCCC)[C@@](C)(OC(C)=O)C[C@H](OC(=O)CCC)[C@@]1(OC(=O)CCC)[C@H]2OC(=O)[C@@]1(C)O`, the Kd came to 11 nM.

As for `C/C=C(/C)C(=O)O[C@H]1C(C)=C2[C@H]([C@@H]1OC(=O)CCCCCCC)[C@@](C)(OC(C)=O)C[C@H](OC(=O)CCC)[C@@]1(OC(=O)CCCCC)[C@H]2OC(=O)[C@@]1(C)O`, the equilibrium dissociation constant (Kd) was 8.5 nM.

As to `C/C=C(/C)C(=O)O[C@H]1C(C)=C2[C@H]([C@@H]1OC(=O)CCCCCCC)[C@@](C)(OC(C)=O)C[C@H](OC(=O)CCC)[C@@]1(OC(=O)C(C)C)[C@H]2OC(=O)[C@@]1(C)O`, the Kd was 13 nM.

Consider `C/C=C(/C)C(=O)O[C@H]1C(C)=C2[C@H]([C@@H]1OC(=O)CCCCCCC)[C@@](C)(OC(C)=O)C[C@H](OC(=O)CCC)[C@@]1(OC(=O)CCCCCCC)[C@H]2OC(=O)[C@@]1(C)O`, for which the Kd came out at 55 nM.

Take `C/C=C(/C)C(=O)O[C@H]1C(C)=C2[C@H]([C@@H]1OC(=O)CCCCCCC)[C@@](C)(OC(C)=O)C[C@H](OC(=O)CCC)[C@@]1(OC(C)=O)[C@H]2OC(=O)[C@@]1(C)O`: the Kd is 2.6 nM.

In the case of `C/C=C(/C)C(=O)O[C@H]1C(C)=C2[C@H]([C@@H]1OC(=O)CCCCCCC)[C@@](C)(OC(C)=O)C[C@H](OC(=O)CCC)[C@@]1(O)[C@H]2O[C@H]2N=C(C)O[C@]21C`, the Kd was found to be 1.7 nM.

Turning to `C/C=C(/C)C(=O)O[C@H]1C(C)=C2[C@H]([C@@H]1OC(=O)CCCCCCC)[C@@](C)(OC(C)=O)C[C@H](OC(=O)CCC)[C@@]1(O)[C@H]2O[C@H]2N=C(CCC)O[C@]21C`, the dissociation constant Kd turned out to be 20 nM.

Consider `C/C=C(/C)C(=O)O[C@H]1C(C)=C2[C@H]([C@@H]1OC(=O)CCCCCCC)[C@@](C)(OC(C)=O)C[C@H](OC(=O)CCC)[C@@]1(O)[C@H]2O[C@H]2N=C(CCOCC)O[C@]21C`, for which the Kd worked out at 79 nM.

Turning to `C/C=C(/C)C(=O)O[C@H]1C(C)=C2[C@H]([C@@H]1OC(=O)CCCCCCC)[C@@](C)(OC(C)=O)C[C@H](OC(=O)CCC)[C@]13O[C@]1(C)C(=O)O[C@@H]23`, the equilibrium dissociation constant (Kd) amounted to 13 nM.

Regarding `C/C=C(/C)C(=O)O[C@H]1C(C)=C2[C@H]([C@@H]1OC(=O)CCCCCCC)[C@@](C)(OC(C)=O)C[C@H](OC(=O)CCC)[C@@]1(O)[C@H]2O[C@H](OC(C)=O)[C@@]1(C)OC(C)=O` (relative stereo), the equilibrium dissociation constant (Kd) stood at 9.4 nM.

Turning to `C/C=C(/C)C(=O)O[C@H]1C(C)=C2[C@H]([C@@H]1OC(=O)CCCCCCC)[C@@](C)(OC(C)=O)C[C@H](O)[C@@]1(O)[C@H]2OC(=O)[C@@]1(C)O` [DEBUTANOYLTHAPSIGARGIN], the Kd came to 10 nM.

Regarding `C/C=C(/C)C(=O)O[C@H]1C(C)=C2[C@H]([C@@H]1OC(=O)CCCCCCC)[C@@](C)(OC(C)=O)C[C@H](OC(=O)CCC)[C@@]1(O)[C@H]2OC(=O)[C@@]1(C)O` [THAPSIGARGIN], the Kd turned out to be 0.2 nM.
